Here are results for 2 compounds from BindingDB's records for doi:10.1021/np900246t (Griffith University, 2009).

In the assay the target is MAP kinase-activated protein kinase 2 (Homo sapiens, UniProt P49137). Nature of the assay: Inhibition of GST-tagged MAPKAPK2 assessed as [33P] incorporation after 40 mins by scintillation proximity assay.

The structures appear in SMILES notation.

Chain of MAP kinase-activated protein kinase 2 (P49137 whole entry): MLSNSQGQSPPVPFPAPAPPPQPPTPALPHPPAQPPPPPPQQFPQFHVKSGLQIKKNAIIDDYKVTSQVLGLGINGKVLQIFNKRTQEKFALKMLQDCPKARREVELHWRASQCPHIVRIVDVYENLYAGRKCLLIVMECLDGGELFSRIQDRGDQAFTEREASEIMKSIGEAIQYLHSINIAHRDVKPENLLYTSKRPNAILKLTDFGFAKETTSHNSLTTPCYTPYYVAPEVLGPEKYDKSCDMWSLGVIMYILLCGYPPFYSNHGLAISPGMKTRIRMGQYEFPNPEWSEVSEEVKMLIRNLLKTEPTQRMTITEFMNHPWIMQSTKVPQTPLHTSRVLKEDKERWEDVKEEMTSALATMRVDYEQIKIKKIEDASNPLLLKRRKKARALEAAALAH

As usually defined, the IC50 is the concentration at which inhibition is half-maximal. Regarding `CC(C)=CCC/C(C)=C/C[C@]12C[C@@H](CC=C(C)C)[C@](C)(CCC=C(C)C)[C@](CC=C(C)C)(C(=O)C(C(=O)c3ccc(O)c(O)c3)C1=O)C2=O` (some centres not stated) [guttiferone P], the IC50 came out at 22 µM.
The result for `CC(C)=CCC/C(C)=C/C[C@]12C[C@@H](CC=C(C)C)C(C)(C)[C@](C/C=C(\C)CCC=C(C)C)(C(=O)C(C(=O)c3ccc(O)c(O)c3)C1=O)C2=O` (some centres not stated) [guttiferone O] reads 22 µM.
